Data from ChEMBL document CHEMBL1151020, “Synthesis of neoeudistomin analogsAs potential filaricides” (1995).

Experiments:
Assay type in all cases: functional
Conditions in all cases: route intraperitoneal
[1] = Antifilarial (Microfilariae) activity (mf) against Litomosoides carinii in cotton rats at a dose of 30 mg/kg for 5 days by ip administration; Inactive
[2] = Macrofilaricidal activity (maf) against Acanthocheilonema viteae in Mastomys natalensis at a dose of 30 mg/kg for 5 days by ip administration; Inactive
[3] = Macrofilaricidal activity (maf) against Litomosoides carinii in cotton rats at a dose of 30 mg/kg for 5 days by ip administration; Inactive
Rattus norvegicus [4] = assay: Antifilarial (Microfilariae) activity (mf) against Litomosoides carinii in cotton rats at a dose of 30 mg/kg for 5 days by ip administration
Rattus norvegicus [5] = assay: Antifilarial (Microfilariae) activity (mf) against Acanthocheilonema viteae in Mastomys natalensis at a dose of 350 mg/kg for 5 days by ip administration

SMILES | Activity [1] | Activity [2] | Activity [3] | Activity (Rattus norvegicus [4]) | Activity (Rattus norvegicus [5])
c1coc(-c2nccc3c2[nH]c2ccccc23)c1 | 0 | 0 |  |  | 
c1csc(C2NCCc3c2[nH]c2ccccc32)c1 (stereo unspecified) | 0 |  | 0 |  | 
c1coc(C2NCCc3c2[nH]c2ccccc32)c1 (stereo unspecified) | 0 |  | 0 |  | 
c1ccc2c3c([nH]c2c1)C(c1ccsc1)NCC3 (stereo unspecified) | 0 |  | 0 |  | 
c1c[nH]c(-c2nccc3c2[nH]c2ccccc23)c1 |  | 0 |  | 73 | 
c1csc(-c2nccc3c2[nH]c2ccccc23)c1 | 0 | 0 | 0 |  | 
CCN(CC)C(=O)N1CCN(C)CC1.O=C(O)CC(O)(CC(=O)O)C(=O)O [DIETHYLCARBAMAZINE CITRATE] |  | 0 | 0 |  | >90
